Source: US8476253B2, “Amide derivative” (Daiichi Sankyo Company, Limited, priority 2009, dated 2013)
Counter-ions that a name gives are not always drawn.

Assays:
[1] = target: T1, substance P receptor (Cavia porcellus, UniProt P30547); assay: Test for binding to guinea-pig substance P receptor (crude lung membrane sample); settings: crude guinea-pig lung membrane sample, [3H]substance P; Ki from IC50 and Kd; read-out: Ki
T1 construct: A preparation of a crude lung membrane sample was prepared; from tissue; host or cells: guinea-pig lung (crude membrane sample)
T1 sequence (P30547 whole entry): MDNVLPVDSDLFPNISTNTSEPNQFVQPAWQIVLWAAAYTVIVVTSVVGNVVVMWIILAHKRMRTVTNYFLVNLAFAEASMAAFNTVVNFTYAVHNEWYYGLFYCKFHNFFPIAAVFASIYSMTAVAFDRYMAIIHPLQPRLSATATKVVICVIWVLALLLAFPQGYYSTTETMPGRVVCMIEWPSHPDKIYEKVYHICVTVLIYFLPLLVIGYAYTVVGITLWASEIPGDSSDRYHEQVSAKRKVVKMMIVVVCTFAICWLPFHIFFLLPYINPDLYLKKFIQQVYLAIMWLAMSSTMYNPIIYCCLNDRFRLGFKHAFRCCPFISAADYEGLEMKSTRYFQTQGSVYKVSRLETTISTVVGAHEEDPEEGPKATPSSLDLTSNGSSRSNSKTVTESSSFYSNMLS
Experimental: A preparation of a crude lung membrane sample was prepared, and a test for binding of a test substance to the sample was performed according to the method described in EP0336230A2.
The binding effect of the test substance to a substance P receptor was calculated as an affinity (Ki) of the test substance for the substance P receptor from a 50% binding concentration (IC50) and an affinity (Kd) of [^3H]substance P for the substance P receptor.

[2] = target: T2, neurokinin NK2 receptor (Cavia porcellus, UniProt Q64077); assay: Effect of suppressing neurokinin A-induced airway contraction (in vivo, intratracheal administration); set-up: species or system guinea pig; settings: guinea pigs, intratracheal administration 60 minutes before 4 μg/kg i.v. NKA, AUC of increase in airway pressure over 10 minutes; for ED50: guinea pig, read-out: ID50 (the source's name)
T2 construct: Using healthy guinea pigs (body weight, 350 to 550 g; Hartley male guinea pigs); from tissue; host or cells: live anaesthetised Hartley male guinea pigs (airway, in vivo)
T2 sequence (Q64077 1-402): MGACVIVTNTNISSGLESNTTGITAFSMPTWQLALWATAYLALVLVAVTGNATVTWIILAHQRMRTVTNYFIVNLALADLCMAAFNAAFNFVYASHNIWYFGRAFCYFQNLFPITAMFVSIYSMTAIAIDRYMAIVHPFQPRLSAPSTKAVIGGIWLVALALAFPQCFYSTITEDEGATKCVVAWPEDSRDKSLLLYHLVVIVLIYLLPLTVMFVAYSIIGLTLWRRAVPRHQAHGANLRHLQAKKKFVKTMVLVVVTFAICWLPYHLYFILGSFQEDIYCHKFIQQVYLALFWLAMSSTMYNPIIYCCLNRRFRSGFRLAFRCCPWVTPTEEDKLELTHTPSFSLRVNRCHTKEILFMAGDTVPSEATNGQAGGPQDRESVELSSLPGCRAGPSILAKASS
Summary of the method: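 Anesthetized, gallamine-paralysed, ventilated male Hartley guinea pigs received compound in 5% glucose intratracheally 60 minutes before 4 μg/kg NKA i.v. AUC of airway pressure increase over 10 minutes gave inhibition versus vehicle controls, expressed as ID50.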

[3] = target: T3, neurokinin NK1 receptor (Cavia porcellus, UniProt P30547); assay: Effect of suppressing substance P-induced airway contraction (in vivo, intratracheal administration); set-up: species or system guinea pig; settings: guinea pigs, intratracheal administration 60 minutes before 20 μg/kg i.v. SP, AUC of increase in airway pressure over 10 minutes; for ED50: guinea pig, read-out: ID50 (the source's name)
T3 construct: Using healthy guinea pigs (body weight, 350 to 550 g; Hartley male guinea pigs); from tissue; host or cells: live anaesthetised Hartley male guinea pigs (airway, in vivo)
T3 sequence (P30547 whole entry): as the sequence (P30547 whole entry) above
Summary of the method: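 Anaesthetised, gallamine-paralysed, ventilated male Hartley guinea pigs; compound in 5% glucose given intratracheally 60 min before 20 μg/kg i.v. substance P. Airway-pressure increase AUC over 10 min, inhibition versus vehicle group, expressed as ID50.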

SMILES | Ki [1] [nM] | ED50 [2] [mg/kg] | ED50 [3] [mg/kg] | ID50 [2] [mg/kg] | ID50 [3] [mg/kg]
CN(CCN1CCC(OC(=O)Nc2ccccc2-c2ccccc2)CC1)C(=O)CCCCCNc1ccc(C(=O)N(C)CCN(C)C(=O)CO[C@H]2Cc3ccccc3C23CCN(CC[C@@]2(c4ccc(F)cc4)CN(C(=O)c4cc(C(F)(F)F)cc(C(F)(F)F)c4)CO2)CC3)cc1 [Example 16, 1-(2-{[6-({4-[{2-[({[(2S)-1′-{2-[(5R)-3-[3,5-Bis(trifluoromethyl)benzoyl]-5-(4-fluorophenyl)-1,3-oxazolidin-5-yl]ethyl}-2,3-dihydrospiro[indene-1,4′-piperidin]-2-yl]oxy}acetyl)(methyl)amino]ethyl}(methyl)carbamoyl]phenyl}amino)hexanoyl](methyl)amino}ethyl)piperidin-4-yl biphenyl-2-ylcarbamate trihydrochloride] | 2.5 | 0.0286 | 0.016 | – | –
CN(CCN1CCC(OC(=O)Nc2ccccc2-c2ccccc2)CC1)C(=O)CCCCCNc1ncc(C(=O)N(C)CCCN(C)C(=O)CO[C@H]2Cc3ccccc3C23CCN(CC[C@@]2(c4ccc(F)cc4)CN(C(=O)c4cc(C(F)(F)F)cc(C(F)(F)F)c4)CO2)CC3)cn1 [Example 14, 1-(2-{[6-({5-[{3-[({[(2S)-1′-{2-[(5R)-3-[3,5-Bis(trifluoromethyl)benzoyl]-5-(4-fluorophenyl)-1,3-oxazolidin-5-yl]ethyl}-2,3-dihydrospiro[indene-1,4′-piperidin]-2-yl]oxy}acetyl)(methyl)amino]propyl}(methyl)carbamoyl]pyrimidin-2-yl}amino)hexanoyl](methyl)amino}ethyl)piperidin-4-yl biphenyl-2-ylcarbamate trihydrochloride] | 1.9 | 0.0284 | 0.0172 | – | –
CN(CCN1CCC(OC(=O)Nc2ccccc2-c2ccccc2)CC1)C(=O)CCCCCNc1ccc(N(C)C(=O)CCCN(C)C(=O)CO[C@H]2Cc3ccccc3C23CCN(CC[C@@]2(c4ccc(F)cc4)CN(C(=O)c4cc(C(F)(F)F)cc(C(F)(F)F)c4)CO2)CC3)cc1 [Example 84, 1-(2-{[6-({4-[{-4-[({[(2S)-1′-{2-[(5R)-3-[3,5-Bis(trifluoromethyl)benzoyl]-5-(4-fluorophenyl)-1,3-oxazolidin-5-yl]ethyl}-2,3-dihydrospiro[indene-1,4′-piperidin]-2-yl]oxy}acetyl)(methyl)amino]butanoyl}(methyl)amino]phenyl}amino)hexanoyl](methyl)amino}ethyl)piperidin-4-yl biphenyl-2-ylcarbamate trihydrochloride] | 2.7 | 0.0221 | 0.0357 | – | –
CN(CCN1CCC(OC(=O)Nc2ccccc2-c2ccccc2)CC1)C(=O)CCCCCNc1nc2ccc(C(=O)N(C)CCCN(C)C(=O)CO[C@H]3Cc4ccccc4C34CCN(CC[C@@]3(c5ccc(F)cc5)CN(C(=O)c5cc(C(F)(F)F)cc(C(F)(F)F)c5)CO3)CC4)cc2s1 [Example 93, 1-(2-{[6-({6-[{3-[({[(2S)-1′-{2-[(5R)-3-[3,5-Bis(trifluoromethyl)benzoyl]-5-(4-fluorophenyl)-1,3-oxazolidin-5-yl]ethyl}-2,3-dihydrospiro[indene-1,4′-piperidin]-2-yl]oxy}acetyl)(methy)amino]propyl}(methyl)carbamoyl]-1,3-benzothiazol-2-yl}amino)hexanoyl](methyl)amino}ethyl)piperidin-4-yl biphenyl-2-ylcarbamate] | 1 | – | – | 0.0437 | 0.0416
CN(CCN1CCC(OC(=O)Nc2ccccc2-c2ccccc2)CC1)C(=O)CCOCCNc1ccc(C(=O)N(C)CCCN(C)C(=O)CO[C@H]2Cc3ccccc3C23CCN(CC[C@@]2(c4ccc(F)cc4)CN(C(=O)c4cc(C(F)(F)F)cc(C(F)(F)F)c4)CO2)CC3)cc1 [Example 29, 1-{2-[{3-[2-({4-[{3-[({[(2S)-1′-{2-[(5R)-3-[3,5-Bis(trifluoromethyl)benzoyl]-5-(4-fluorophenyl)-1,3-oxazolidin-5-yl]ethyl}-2,3-dihydrospiro[indene-1,4′-piperidin]-2-yl]oxy}acetyl)(methy)amino]propyl}(methyl)carbamoyl]phenyl}amino)ethoxy]propanoyl}(methyl)amino]ethyl}piperidin-4-yl biphenyl-2-ylcarbamate trihydrochloride] | 1.4 | 0.0438 | 0.0292 | – | –
CN(CCN1CCC(OC(=O)Nc2ccccc2-c2ccccc2)CC1)C(=O)CCCCCN(C)c1ccc(C(=O)N(C)CCCN(C)C(=O)CO[C@H]2Cc3ccccc3C23CCN(CC[C@@]2(c4ccc(F)cc4)CN(C(=O)c4cc(C(F)(F)F)cc(C(F)(F)F)c4)CO2)CC3)cc1 [Example 76, 1-{2-[{6-[{4-[{3-[({[(2S)-1′-{2-[(5R)-3-[3,5-Bis(trifluoromethyl)benzoyl]-5-(4-fluorophenyl)-1,3-oxazolidin-5-yl]ethyl}-2,3-dihydrospiro[indene-1,4′-piperidin]-2-yl]oxy}acetyl)(methyl)amino]propyl}(methyl)carbamoyl]phenyl}(methyl)amino]hexanoyl}(methyl)amino]ethyl}piperidin-4-yl biphenyl-2-ylcarbamate] | 2.7 | 0.0176 | 0.0622 | – | –
Cc1cc(NCCCCCC(=O)N(C)CCN2CCC(OC(=O)Nc3ccccc3-c3ccccc3)CC2)sc1C(=O)N(C)CCCN(C)C(=O)CO[C@H]1Cc2ccccc2C12CCN(CC[C@@]1(c3ccc(F)cc3)CN(C(=O)c3cc(C(F)(F)F)cc(C(F)(F)F)c3)CO1)CC2 [Example 30, 1-(2-{[6-({5-[{3-[({[(2S)-1′-{2-[(5R)-3-[3,5-Bis(trifluoromethyl)benzoyl]-5-(4-fluorophenyl)-1,3-oxazolidin-5-yl]ethyl}-2,3-dihydrospiro[indene-1,4′-piperidin]-2-yl]oxy}acetyl)(methyl)amino]propyl}(methyl)carbamoyl]-4-methyl-2-thienyl}amino)hexanoyl](methyl)amino}ethyl)piperidin-4-yl biphenyl-2-ylcarbamate trihydrochloride] | 1.9 | 0.0632 | 0.0388 | – | –
CN(CCN1CCC(OC(=O)Nc2ccccc2-c2ccccc2)CC1)C(=O)CCCCCNc1ccc(C(=O)N(C)CCN(C)C(=O)CO[C@H]2Cc3ccccc3C23CCN(CC[C@@]2(c4ccc(F)cc4)CN(C(=O)c4cc(C(F)(F)F)cc(C(F)(F)F)c4)CO2)CC3)cc1 [Example 15, 1-(2-{[6-({4-[{2-[({[(2S)-1-{2-[(5R)-3-[3,5-Bis(trifluoromethyl)benzoyl]-5-(4-fluorophenyl)-1,3-oxazolidin-5-yl]ethyl}-2,3-dihydrospiro[indene-1,4′-piperidin]-2-yl]oxy}acetyl)(methyl)amino]ethyl}(methyl)carbamoyl]phenyl}amino)hexanoyl](methyl)amino}ethyl)piperidin-4-yl biphenyl-2-ylcarbamate] | 1.5 | – | – | 0.0377 | 0.0224
CN(CCN1CCC(OC(=O)Nc2ccccc2-c2ccccc2)CC1)C(=O)CCCCCNc1ccc(C(=O)N2CCCN(C(=O)CO[C@H]3Cc4ccccc4C34CCN(CC[C@@]3(c5ccc(F)cc5)CN(C(=O)c5cc(C(F)(F)F)cc(C(F)(F)F)c5)CO3)CC4)CC2)cc1 [Example 110, 1-{2-[{6-[(4-{[4-({[(2S)-1′-{2-[(5R)-3-[3,5-Bis(trifluoromethyl)benzoyl]-5-(4-fluorophenyl)-1,3-oxazolidin-5-yl)ethyl}-2,3-dihydrospiro[indene-1,4′-piperidin]-2-yl]oxy}acetyl)-1,4-diazepan-1-yl]carbonyl}phenyl)amino]hexanoyl}(methyl)amino]ethyl}piperidin-4-yl biphenyl-2-ylcarbamate trihydrochloride] | 1.7 | 0.0135 | 0.0174 | – | –
CN(CCN1CCC(OC(=O)Nc2ccccc2-c2ccccc2)CC1)C(=O)CCCCNc1ccc(C(=O)N(C)CCCN(C)C(=O)CO[C@H]2Cc3ccccc3C23CCN(CC[C@@]2(c4ccc(F)cc4)CN(C(=O)c4cc(C(F)(F)F)cc(C(F)(F)F)c4)CO2)CC3)cc1 [Example 32, 1-(2-{[5-({4-[{3-[({[(2S)-1′-{2-[(5R)-3-[3,5-Bis(trifluoromethyl)benzoyl]-5-(4-fluorophenyl)-1,3-oxazolidin-5-yl]ethyl}-2,3-dihydrospiro[indene-1,4′-piperidin]-2-yl]oxy}acetyl)(methyl)amino]propyl}(methyl)carbamoyl]phenyl}amino)pentanoyl](methyl)amino}ethyl)piperidin-4-yl biphenyl-2-ylcarbamate trihydrochloride] | 1.3 | 0.0356 | 0.0202 | – | –
